Biological target: T1, MTH1 (Homo sapiens, UniProt P36639)
T1 construct: Human MTH1 full length protein purchased from Abcam (Cambridge, USA); purchased Abcam
Test: MTH1 inhibitor IC50 determination by two-tube OGAL probe assay
Type: biochemical
Conditions: 40 μM OGAL, read-out: apparent IC50
Protocol: Inhibitory concentration (IC50) values were determined by the two-tube OGAL probe assay. The reaction buffer contained: 50 mM NaCl, 10 mM Tris-HCl (pH 7.9), 10 mM MgCl2, 1 mM DTT, 40 μM OGAL nucleotides, and varied concentrations of inhibitors. After 15 min incubation at 30° C., 5 μL of this reaction solution was added to 95 μL luciferase reaction solution in a 96 well plate to measure ATP signals. All the reactions were performed as three replicates. The IC50 was calculated using GraphPad Prism software.

Nc1ncnc2c1c(-c1cccc(OCc3ccccc3)c1)cn2C1CC(CN2CCC2)C1 (stereo not shown) [NVP-AEW541]
IC50: 1900 nM
